Like-named read-outs stand apart in the source and are kept apart here.
How the values were obtained:
[1] = test system: ERK phosphorylation (Thr 202/Tyr 204) in NCI-H1373 cells; test: ERK phosphorylation inhibitory action in NCI-H1373 (Cell ELISA); assay type: cell-based, Human; conditions: read-out: IC50 (ERK phosphorylation inhibition)
Procedure, shortened: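 KRAS G12C NCI-H1373 cells (2×10^4/well) were treated with compound (six points, 1,000–0.3 nM final) for 2 h. Phospho-ERK Thr202/Tyr204 was measured by in-cell ELISA with an IRDye 800CW secondary antibody. IC50 was fitted by sigmoid-Emax regression against DMSO (0%) and 1 μM trametinib (100%).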

[2] = biological target: T1, KRAS G12C/SOS/c-Raf complex (Homo sapiens, UniProt P01116, G12C); test: KRAS G12C/SOS/c-Raf complex formation inhibitory action (TR-FRET); assay type: biochemical; conditions: one hour at room temperature, read-out: IC50 (KRAS G12C/SOS/c-Raf complex formation inhibition)
T1 construct: Biotinylated AviTag-KRAS G12C (amino acid region 1-185, GDP)
T1 sequence (P01116 1-185 isoform P01116-2 G12C, one chain of several): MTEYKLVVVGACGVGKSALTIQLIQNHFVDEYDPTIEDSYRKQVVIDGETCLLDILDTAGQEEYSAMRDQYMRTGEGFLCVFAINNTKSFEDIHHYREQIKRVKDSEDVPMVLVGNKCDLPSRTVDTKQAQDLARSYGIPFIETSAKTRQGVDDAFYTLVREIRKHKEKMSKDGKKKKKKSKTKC
Procedure, shortened: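 Biotin-AviTag KRAS G12C (1-185, GDP-bound) was mixed with compound (4,000 to 4 nM stock dilutions), SOS (564-1049), GST-c-Raf (51-131) and GTP in pH 7.4 HEPES/NaCl/MgCl2/Tween buffer for 1 h at room temperature. Complex formation was read by TR-FRET with Eu-streptavidin and ULight-anti-GST (ex 337 nm, em 620/665 nm).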

[3] = Homo sapiens, NCI-H1373, 2 h, NCI-H1373 cells, cultured for 2 hours, 100% = 1 μM Trametinib
[4] = NCI-H1373 cells, cultured for 2 hours, 100% = 1 μM Trametinib

SMILES	IC50 [1, 3]	IC50 [2]	IC50 [1, 4]	IC50 ([1]; Homo sapiens, NCI-H1373, 2 h)
C=CC(=O)N1CC2(CCN(c3nc(OC4CCN(CCOC)CC4)nc4c(OCC(F)(F)F)c(-c5c(C)ccc6[nH]ncc56)c(C5CC5)cc34)CC2)C1 [Ex 25]	2.5 nM	48 nM	–	–
C=CC(=O)N1CC2(CCN(c3nc(OC4CCN(CC(C)(C)O)CC4)nc4c(OCC(F)(F)F)c(-c5c(C)ccc6[nH]ncc56)c(C=C)cc34)CC2)C1 [Example 40]	–	15 nM	3.1 nM	–
C=CC(=O)N1CC2(CCN(c3nc(OC4CCN(Cc5ccccn5)CC4)nc4c(OCC(F)(F)F)c(-c5c(C)ccc6[nH]ncc56)c(C=C)cc34)CC2)C1 [Example 56]	7.7 nM	63 nM	–	–
C=CC(=O)N1CC2(CCN(c3nc(OC[C@@H]4CCCN4C)nc4c(OCC(F)F)c(-c5c(C)ccc6[nH]ncc56)c(C5CC5)cc34)CC2)C1 [Ex 4]	2.9 nM	35 nM	–	–
C=CC(=O)N1CC2(CCN(c3nc(OC4CCN(C5COC5)CC4)nc4c(OCC)c(-c5c(C)ccc6[nH]ncc56)c(C5CC5)cc34)CC2)C1 [Example 34]	5.8 nM	36 nM	–	–
C=CC(=O)N1CC2(CCN(c3nc(N4CCN(C)CC4)nc4c(OCC(F)(F)F)c(-c5c(C)ccc6[nH]ncc56)c(C=C)cc34)CC2)C1 [Example 50]	6.4 nM	50 nM	–	–
C=CC(=O)N1CC2(CCN(c3nc(OC4CCN(C)CC4)nc4c(OCC(F)F)c(-c5c(C)ccc6[nH]ncc56)c(C5CC5)cc34)CC2)C1 [Ex 3]	3.3 nM	29 nM	–	–
C=CC(=O)N1CC2(CCN(c3nc(OC[C@@H]4CCCN4C)nc4c(OC5CCC5)c(-c5c(C)ccc6[nH]ncc56)c(C=C)cc34)CC2)C1 [Example 15]	–	52 nM	–	11 nM
C=CC(=O)N1CC2(CCN(c3nc(N4CC(N(C)C)C4)nc4c(OCC(F)(F)F)c(-c5c(C)ccc6[nH]ncc56)c(C=C)cc34)CC2)C1 [Example 65]	9.3 nM	46 nM	–	–
C=CC(=O)N1CC2(CCN(c3nc(OC4CCN(C5CCOCC5)CC4)nc4c(OCC(F)(F)F)c(-c5c(C)ccc6[nH]ncc56)c(C=C)cc34)CC2)C1 (single isomer, unassigned) [Ex 39]	3 nM	14 nM	–	–
C=CC(=O)N1CC2(CCN(c3nc(OC[C@@H]4CCCN4C)nc4c(OCC)c(-c5c(C)ccc6[nH]ncc56)c(C=C)cc34)CC2)C1 [Example 16]	–	45 nM	–	9.1 nM
C=CC(=O)N1CC2(CCN(c3nc(OC4CCN(CCCOC)CC4)nc4c(OCC(F)(F)F)c(-c5c(C)ccc6[nH]ncc56)c(C5CC5)cc34)CC2)C1 [Ex 28]	3.5 nM	38 nM	–	–
C=CC(=O)N1CC2(CCN(c3nc(OC4CCN(C)CC4F)nc4c(OCC(F)(F)F)c(-c5c(C)ccc6[nH]ncc56)c(C=C)cc34)CC2)C1 (stereo not drawn) [Example 52]	6.7 nM	56 nM	–	–
C=CC(=O)N1CC2(CCN(c3nc(OC4CCN(C5COC5)CC4)nc4c(OCC(F)(F)F)c(-c5c(C)ccc6[nH]ncc56)c(C=C)cc34)CC2)C1 [Example 33]	4.6 nM	44 nM	–	–
C=CC(=O)N1CC2(CCN(c3nc(OC4CCN(C)CC4)nc4c(OCC)c(-c5c(C)ccc6[nH]ncc56)c(C5CC5)cc34)CC2)C1 [Ex 2]	4.4 nM	37 nM	–	–
C=CC(=O)N1CC2(CCN(c3nc(OC4CCN(CCOC)CC4)nc4c(OCC(F)(F)F)c(-c5c(C)ccc6[nH]ncc56)c(C=C)cc34)CC2)C1 [Ex 26]	3.3 nM	41 nM	–	–
C=CC(=O)N1CC2(CCN(c3nc(OC4CCN(CCOC)CC4)nc4c(OCC(F)F)c(-c5c(C)ccc6[nH]ncc56)c(C5CC5)cc34)CC2)C1 [Example 32]	5.7 nM	39 nM	–	–
C=CC(=O)N1CC2(CCN(c3nc(OC4CCN(CCOC)CC4)nc4c(OCC(F)(F)F)c(-c5c(C)ccc6[nH]ncc56)c(C5CC5)cc34)CC2)C1 [Example 35]	–	17 nM	2.5 nM	–
C=CC(=O)N1CC2(CCN(c3nc(OC4CCN(CCOCC)CC4)nc4c(OCC(F)(F)F)c(-c5c(C)ccc6[nH]ncc56)c(C=C)cc34)CC2)C1 [Example 37]	–	17 nM	2.5 nM	–
C=CC(=O)N1CC2(CCN(c3nc(OC4CCN(CC)CC4)nc4c(OCC)c(-c5c(C)ccc6[nH]ncc56)c(C=C)cc34)CC2)C1 [Ex 7]	8.8 nM	33 nM	–	–
C=CC(=O)N1CC2(CCN(c3nc(OC4CCN(C5CCOCC5)CC4)nc4c(OCC(F)(F)F)c(-c5c(C)ccc6[nH]ncc56)c(C=C)cc34)CC2)C1 [Ex 30]	3.1 nM	45 nM	–	–
C=CC(=O)N1CC2(CCN(c3nc(OC4CCN(CCOCC)CC4)nc4c(OCC(F)(F)F)c(-c5c(C)ccc6[nH]ncc56)c(C=C)cc34)CC2)C1 [Example 29]	4.2 nM	49 nM	–	–
C=CC(=O)N1CCN(c2nc(OC3CCN(C)CC3)nc3c(F)c(-c4c(C)ccc5[nH]ncc45)c(Cl)cc23)CC1 [Compound C, reference compound]	210 nM	68 nM	–	–
C=CC(=O)N1CC2(CCN(c3nc(OC4CCN(C)CC4)nc4c(OCC)c(-c5c(C)ccc6[nH]ncc56)c(C=C)cc34)CC2)C1 [Ex 24]	3.7 nM	21 nM	–	–
